Patent US9345723B2, “Rapid formation of chitosan sponges using guanosine 5′-diphosphate: injectable scaffolds for tissue regeneration and drug delivery” (THE ROYAL INSTITUTION FOR THE ADVANCEMENT OF …, priority 2012, dated 2016)

Columns and labels:
3T3 fibroblasts [1] = conditions: concentrations higher than 5 mM; recent study (Pati et al., 2012); cited from earlier work
3T3 fibroblasts [2] = assay: Cytotoxicity of GDP and TPP, MTT assay; format: cell-based; conditions: concentrations higher than 5 mM, 24 hours of culture
Protocol: FIG. 3 illustrates the comparison of the cytotoxicity of GDP and TPP at different concentrations; FIG. 3A: light microscopy images of 3T3 fibroblasts with different concentrations of GDP and TPP added to the culture media after 24 hours; FIG. 3B: Quantitative analysis, using MTT assay, of the cytotoxicity of TPP and GDP to 3T3 fibroblasts at different concentrations after 24 hours.
Crosslinking of chitosan using GDP occurs due to the electrostatic attractions between the anionic phosphate groups of GDP and the cationic amine groups of chitosan. Another anionic crosslinker used in the art is tripolyphosphate (TPP), which has been widely used to fabricate chitosan nanoparticles, microparticles and fibers (Pati et al., 2011, Carbohyd Res, 346: 2582). The cytotoxicity of GDP was compared to tripolyphosphate (TPP) at concentrations from 0.05 mM to 50 mM using 3T3 fibroblasts.

Row | SMILES | cytotoxicity (3T3 fibroblasts [1]) | cytotoxicity compared to TPP (3T3 fibroblasts [2])
1 | O=P(O)(O)OP(=O)(O)OP(=O)(O)O [TPP, tripolyphosphate] | cytotoxicity of TPP at concentrations higher than 5 mM | 
2 | Nc1nc2c(ncn2[C@@H]2O[C@H](COP(=O)(O)OP(=O)(O)O)[C@@H](O)[C@H]2O)c(=O)[nH]1 [GDP, Guanosine 5′-Diphosphate] |  | significantly less cytotoxic
